The text below walks through data of patent EP4653444A1, “FUSED TRICYCLIC COMPOUND AS KINASE INHIBITOR” (Hangzhou Innogate Pharma Co., Ltd., priority 2023, dated 2024).

A short description of series [1]: Pharmacokinetic study in rats. The following applies: rat, plasma, po, 3 mg/kg.
Protocol: Pharmacokinetic parameters were calculated by statistical moment method using WinNonLin 8.0 software, mainly including Tmax, T1/2, Cmax and AUC0-24h.
Animals: Three male SD rats weighing 200-220 g were used. After purchase, they were housed in the laboratory animal center for 2 days before experiment. […] Blood samples were collected at scheduled time points after oral gavage.
Vehicle: 0.4% ethanol + 0.4% Tween 80 + 99.2% (0.5% methylcellulose M450). Preparation of oral gavage solution: The compound was accurately weighed and dissolved in vehicle by ultrasonication for 5 min at room temperature to prepare 0.3 mg/mL drug solution.
Single compound administration was also used to study pharmacokinetics in rats.
Blood sample collection: After oral gavage, blood samples were collected from orbital sinus at 0.25, 0.5, 1, 2, 4, 8, 10 and 24 h. 50 µL plasma was mixed with 200 µL acetonitrile (containing 2 ng/mL verapamil as internal standard). The mixture was vortexed for 3 min, then centrifuged at 20000 rcf for 10 min at 4 °C. The supernatant was analyzed by LC-MS/MS.
Standard curves were established by accurately weighing and preparing compounds at different concentrations for mass spectrometric quantification. Compound concentrations in plasma samples were determined based on standard curves to obtain concentration-time profiles. All measurement data were collected and processed by relevant software. Pharmacokinetic parameters (including Tmax, T1/2, Cmax and AUC0-24h) were calculated by statistical moment method.
Another series addresses T1, ULK1 kinase (Homo sapiens, UniProt O75385).
T1 sequence (O75385 1-1050): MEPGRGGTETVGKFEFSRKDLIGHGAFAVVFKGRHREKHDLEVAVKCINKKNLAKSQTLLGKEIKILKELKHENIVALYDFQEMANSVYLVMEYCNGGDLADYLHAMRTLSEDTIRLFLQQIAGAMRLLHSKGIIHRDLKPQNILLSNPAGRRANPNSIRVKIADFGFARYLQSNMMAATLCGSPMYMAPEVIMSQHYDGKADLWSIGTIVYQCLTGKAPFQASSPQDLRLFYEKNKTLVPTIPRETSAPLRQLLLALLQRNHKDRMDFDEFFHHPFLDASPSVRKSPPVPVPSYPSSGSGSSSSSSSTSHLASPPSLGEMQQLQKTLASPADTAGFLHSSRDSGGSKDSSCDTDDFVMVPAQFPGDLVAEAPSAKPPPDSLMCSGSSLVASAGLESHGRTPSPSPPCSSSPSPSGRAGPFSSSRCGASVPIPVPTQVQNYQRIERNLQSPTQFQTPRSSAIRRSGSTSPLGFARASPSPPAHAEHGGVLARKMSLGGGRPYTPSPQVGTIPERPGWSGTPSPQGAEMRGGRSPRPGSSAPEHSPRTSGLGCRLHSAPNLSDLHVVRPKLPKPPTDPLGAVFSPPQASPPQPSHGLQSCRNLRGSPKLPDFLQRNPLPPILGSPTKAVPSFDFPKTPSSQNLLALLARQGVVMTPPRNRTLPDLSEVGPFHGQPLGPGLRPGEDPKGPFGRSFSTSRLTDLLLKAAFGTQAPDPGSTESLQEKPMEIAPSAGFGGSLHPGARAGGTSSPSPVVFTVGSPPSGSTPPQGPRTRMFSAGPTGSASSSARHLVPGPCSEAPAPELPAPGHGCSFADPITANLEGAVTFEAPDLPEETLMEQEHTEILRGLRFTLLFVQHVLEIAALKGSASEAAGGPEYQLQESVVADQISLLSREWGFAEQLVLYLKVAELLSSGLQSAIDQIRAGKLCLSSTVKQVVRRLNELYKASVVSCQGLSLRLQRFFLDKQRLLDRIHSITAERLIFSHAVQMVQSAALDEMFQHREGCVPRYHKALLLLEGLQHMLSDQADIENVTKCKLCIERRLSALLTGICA
The experiment in a line: ULK kinase activity inhibition assay (ADP-Glo). It counts as biochemical. The procedure: (§1) The ADP-Glo method was used to evaluate the inhibitory activity of the compounds against ULK1 and ULK2 kinases. Prepare 1× kinase reaction buffer (final working concentrations: HEPES 50 mM, MgCl2 10 mM, Brij35 0.01%, EGTA 1 mM, DTT 2 mM). Prepare 2× kinase and […] substrate solutions: ULK1 kinase at 0.5 nM; substrate mix containing ATP at 100 µM and MBP at 0.1 mg/mL. ULK2 kinase at 0.15 nM; substrate mix containing ATP at 6 µM and MBP at 0.1 mg/mL. Compounds were serially diluted in DMSO and shaken on a shaker for 20 minutes. Prepare 2× kinase using 1× kinase reaction buffer. Transfer 20 nL of compound into a 384-well plate. Add 2 µL of kinase to each well of the reaction plate. Seal the plate with sealing film, centrifuge at 1000 rpm for 60 seconds, and incubate at 25°C for 10 minutes. Prepare 2× ATP & MBP mixture using 1× kinase reaction buffer and add 2 µL to each well. Seal the plate, centrifuge at 1000 rpm for 60 seconds, and incubate at 25°C for 60 minutes. Add 4 µL ADP-Glo reagent to the 384-well plate, centrifuge at 1000 rpm for 1 minute, and incubate at 25°C for 40 minutes. Then, add 8 µL Detection Reagent, centrifuge at 1000 rpm for 1 minute, and incubate at 25°C for 40 minutes. Read the RLU (Relative Luminescence Unit) signal using a BMG plate reader to indicate kinase activity. Inhibition rate was calculated as: % Inhibition = 100% - [(Compound - Positive Control)/(Negative Control - Positive Control)] × 100%. IC50 values (half-maximal inhibitory concentration) were calculated by nonlinear regression using GraphPad Prism 7.0. Y = Bottom + (Top - Bottom)/(1 + 10^((LogIC50 - X) × Hill Slope)), where X is the log of compound concentration and Y is the % inhibition.

For a further series, the target named is T2, ULK2 kinase (Homo sapiens, UniProt Q8IYT8).
T2 sequence (Q8IYT8 1-1036): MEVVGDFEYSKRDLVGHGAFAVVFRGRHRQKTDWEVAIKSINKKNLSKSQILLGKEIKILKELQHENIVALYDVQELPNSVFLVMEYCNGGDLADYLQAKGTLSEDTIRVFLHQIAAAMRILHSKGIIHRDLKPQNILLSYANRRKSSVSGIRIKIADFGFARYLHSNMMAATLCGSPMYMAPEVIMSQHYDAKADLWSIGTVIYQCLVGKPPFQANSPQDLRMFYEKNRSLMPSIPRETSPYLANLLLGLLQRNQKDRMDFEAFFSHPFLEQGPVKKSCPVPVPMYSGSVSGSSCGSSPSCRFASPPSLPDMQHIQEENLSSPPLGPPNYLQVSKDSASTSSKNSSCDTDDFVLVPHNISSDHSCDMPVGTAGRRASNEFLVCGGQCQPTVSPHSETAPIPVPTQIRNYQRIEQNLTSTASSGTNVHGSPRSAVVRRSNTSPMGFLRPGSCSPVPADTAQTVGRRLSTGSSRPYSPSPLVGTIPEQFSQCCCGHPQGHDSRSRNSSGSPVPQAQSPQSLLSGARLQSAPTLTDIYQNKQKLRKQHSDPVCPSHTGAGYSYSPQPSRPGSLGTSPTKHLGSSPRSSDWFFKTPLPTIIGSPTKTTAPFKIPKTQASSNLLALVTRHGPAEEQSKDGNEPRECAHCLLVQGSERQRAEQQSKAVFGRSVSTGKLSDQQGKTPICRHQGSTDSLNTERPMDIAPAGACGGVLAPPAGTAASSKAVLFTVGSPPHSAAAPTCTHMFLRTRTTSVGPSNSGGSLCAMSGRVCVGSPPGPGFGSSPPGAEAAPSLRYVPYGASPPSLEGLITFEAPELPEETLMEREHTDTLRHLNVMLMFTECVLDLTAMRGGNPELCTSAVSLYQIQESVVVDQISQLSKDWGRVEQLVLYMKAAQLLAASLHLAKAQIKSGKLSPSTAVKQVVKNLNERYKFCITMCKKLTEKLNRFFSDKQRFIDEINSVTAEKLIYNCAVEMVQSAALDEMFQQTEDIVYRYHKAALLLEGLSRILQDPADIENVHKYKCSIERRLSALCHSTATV
The experiment in a line: ULK kinase activity inhibition assay (ADP-Glo). It is filed as biochemical. Here is the method: as §1
Background: ADP-Glo first removes unused ATP, then detects ADP through luciferase.

Another series has as its target FAK kinase (Homo sapiens, UniProt Q05397). The experiment in a line: FAK kinase activity inhibition assay, method A (HTRF). It counts as biochemical. The procedure:
The HTRF method was used to evaluate the inhibitory activity of the compounds against FAK kinase. […]. The reaction conditions were: FAK kinase at 0.1 ng/µL; ATP 10 µM; substrate concentration 1 µM. Compounds were serially diluted in DMSO and shaken on a shaker for 20 minutes. Prepare 2× kinase using 1× reaction buffer. Transfer 25 nL compound to a 384-well plate using Echo 655. Add 2.5 µL kinase per well. Seal the plate with sealing film, centrifuge at 1000 rpm for 60 seconds, and incubate at 25°C for 12 hours. Prepare 2× ATP/substrate mix using 1× enzyme reaction buffer and add 2.5 µL 2× ATP/substrate mix per well. Seal the plate with sealing film, centrifuge at 1000 rpm for 60 seconds, and incubate at 25°C for 50 minutes. Prepare 2×XL665 & antibody solution using HTRF detection buffer, and add 5 µL per well. Incubate at 25°C for 60 minutes. Read fluorescence at 620 nm (Cryptate) and 665 nm (XL665). Calculate the ratio per well (Ratio_665/620 nm). % Inhibition = 100% - [(Compound Ratio - Positive Control Ratio)/ (Negative Control Ratio - Positive Control Ratio)] × 100%. IC50 values (half-maximal inhibitory concentration) were calculated by nonlinear regression using GraphPad Prism 7.0. Y = Bottom + (Top - Bottom)/ (1 + 10^ ((LogIC50 - X) × Hill Slope)), where X is the log of compound concentration and Y is the % inhibition.

Setting [2] is: ADP-Glo, ATP 100 µM, read-out: ULK1 (IC50).
Where [3] appears, read: ADP-Glo, ATP 6 µM, read-out: ULK2 (IC50).

Like-named read-outs stand apart in the source and are kept apart here.

Sequence of FAK kinase (Q05397 whole entry): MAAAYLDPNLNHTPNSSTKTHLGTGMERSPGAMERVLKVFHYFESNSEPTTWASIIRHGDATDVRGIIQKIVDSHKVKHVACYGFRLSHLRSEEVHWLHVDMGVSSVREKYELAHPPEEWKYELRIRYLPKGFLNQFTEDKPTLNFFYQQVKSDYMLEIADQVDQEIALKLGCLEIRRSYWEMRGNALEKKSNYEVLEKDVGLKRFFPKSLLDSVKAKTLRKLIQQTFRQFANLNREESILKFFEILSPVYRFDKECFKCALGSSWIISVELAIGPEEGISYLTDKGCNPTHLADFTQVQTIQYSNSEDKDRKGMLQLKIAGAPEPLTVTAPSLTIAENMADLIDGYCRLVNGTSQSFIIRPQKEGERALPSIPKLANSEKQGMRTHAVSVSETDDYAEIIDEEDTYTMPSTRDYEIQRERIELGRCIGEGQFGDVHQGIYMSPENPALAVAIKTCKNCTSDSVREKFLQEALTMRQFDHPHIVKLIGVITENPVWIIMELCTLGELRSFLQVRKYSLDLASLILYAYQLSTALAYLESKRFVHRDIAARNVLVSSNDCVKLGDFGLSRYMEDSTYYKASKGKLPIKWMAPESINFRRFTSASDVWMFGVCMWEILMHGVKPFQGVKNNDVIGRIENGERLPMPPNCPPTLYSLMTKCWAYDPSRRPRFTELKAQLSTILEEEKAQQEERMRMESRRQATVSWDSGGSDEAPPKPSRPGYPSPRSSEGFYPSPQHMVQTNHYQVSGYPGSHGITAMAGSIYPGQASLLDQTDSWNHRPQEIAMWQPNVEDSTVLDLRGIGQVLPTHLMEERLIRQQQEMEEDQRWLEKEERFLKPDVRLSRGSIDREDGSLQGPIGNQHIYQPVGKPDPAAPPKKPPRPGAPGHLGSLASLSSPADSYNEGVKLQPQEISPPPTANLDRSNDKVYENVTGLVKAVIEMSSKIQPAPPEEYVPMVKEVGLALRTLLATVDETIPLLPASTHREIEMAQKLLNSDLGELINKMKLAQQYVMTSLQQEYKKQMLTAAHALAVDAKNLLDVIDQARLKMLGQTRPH

Regarding `CCc1cc2c(cc1Nc1ncc(C(F)(F)F)c(NCCCN3CCOCCC3=O)n1)OC[C@H]1CN(C)CCN21` [Compound A1R], in series [1], the area under the curve AUC(0-t) (commonly exposure summed from dosing to a finite time, without extrapolation to infinity) at 24 h amounted to 326 ng·h/mL; the Cmax (as a rule, the peak of the concentration-time curve) was found to be 74.2 ng/mL; the Tmax (in general, the time from dosing to the highest level) was determined as 1.2 h; the half-life – broadly, how long it takes for the measured level to halve – is 1.5 h. Also, at ULK1 kinase (setting [2]), the IC50 (as a rule, the midpoint of a concentration-inhibition curve) is below 3 nM. At ULK2 kinase (setting [3]), the half-inhibitory concentration (IC50) is below 1 nM.

With `CCc1cc2c(cc1Nc1ncc(C(F)(F)F)c(NCCCN3CCOCCC3=O)n1)OC[C@H]1CN(C3CCN(C)CC3)CCN21` [Compound A2R], in series [1], the area under the curve AUC(0-t) at 24 h amounted to 1940 ng·h/mL, the concentration peaked (Cmax) at 149 ng/mL, the time to peak (Tmax) stood at 8 h and the half-life is 8.8 h. This compound showed an IC50 against ULK1 kinase below 3 nM. For the same compound, on ULK2 kinase, the IC50 was below 5 nM.

For `CCc1cc2c(cc1Nc1ncc(C(F)(F)F)c(NCCCN3CCOCCC3=O)n1)OC[C@H]1CN(C3CCOCC3)CCN21` [Compound A3R], in series [1], the AUC(0-t) at 24 h came out at 1040 ng·h/mL, the Cmax turned out to be 223 ng/mL, the time to peak (Tmax) was 1.2 h and the half-life is 1.4 h. At ULK1 kinase, this compound gave an IC50 below 3 nM. Also, the IC50 against ULK2 kinase was below 1 nM.

For the compound `CCc1cc2c(cc1Nc1ncc(C(F)(F)F)c(NCCCN3CCCCC3=O)n1)OC[C@H]1CNCCN21` [Compound A5R], the half-inhibitory concentration (IC50) on ULK1 kinase (setting [2]) and at ULK2 kinase (setting [3]) was below 1 nM each time.

Regarding `CCc1cc2c(cc1Nc1ncc(C(F)(F)F)c(NCCCN3CCCCC3=O)n1)OC[C@H]1CN(C3CCOCC3)CCN21` [Compound A7R], the IC50 was below 3 nM on ULK1 kinase and below 1 nM at ULK2 kinase.

`COc1cc2c(cc1Nc1ncc(C(F)(F)F)c(CCc3ccccc3CC(N)=O)n1)OC[C@H]1CN(C3CCN(C)CC3)CCN21` [Compound B2R]: in series [1], the exposure AUC(0-t) at 24 h was determined as 880 ng·h/mL, the concentration peaked (Cmax) at 76.4 ng/mL, the Tmax was found to be 4.7 h and the half-life was 7.4 h. For the same compound, on FAK kinase, the half-inhibitory concentration (IC50) is below 0.5 nM.

For `COc1cc2c(cc1Nc1ncc(C(F)(F)F)c(CCc3ccccc3CC(N)=O)n1)OC[C@H]1CNCCN21` [Compound B3R], in series [1], the area under the curve AUC(0-t) at 24 h was found to be 690 ng·h/mL, the Cmax came out at 68.9 ng/mL, the time of peak concentration (Tmax) is 3.3 h and the half-life was 7.9 h. In addition, the IC50 on FAK kinase (Table 2, HTRF, ATP 10 µM, read-out: FAK (method A) (IC50)) is below 0.5 nM.

Take `COc1cc2c(cc1Nc1ncc(C(F)(F)F)c(CCc3ccccc3CC(N)=O)n1)OC[C@H]1CN(C3CCOCC3)CCN21` [Compound B4R]: in series [1], the AUC(0-t) at 24 h was found to be 568 ng·h/mL, the Cmax amounted to 200 ng/mL, the Tmax stood at 0.8 h and the half-life was 1.5 h. The compound also registered an IC50 at FAK kinase below 0.5 nM.

For the compound `CCN1CCN2c3cc(OC)c(Nc4ncc(C(F)(F)F)c(CCc5ccccc5CC(N)=O)n4)cc3OC[C@H]2C1` [Compound B5R], in series [1], the AUC(0-t) at 24 h worked out at 685 ng·h/mL, the peak concentration (Cmax) worked out at 118 ng/mL, the Tmax worked out at 2 h and the half-life is 2.8 h. On FAK kinase, this compound came in with an IC50 below 0.5 nM.

In the case of `COc1cc2c(cc1Nc1ncc(C(F)(F)F)c(CCc3ccccc3CC(N)=O)n1)OC[C@H]1CN(C3CC3)CCN21` [Compound B6R], in series [1], the AUC(0-t) at 24 h stood at 905 ng·h/mL, the Cmax stood at 299 ng/mL, the Tmax worked out at 1 h and the half-life was 1.3 h. This compound came in with a half-inhibitory concentration (IC50) on FAK kinase below 1 nM.

Consider `COc1cc2c(cc1Nc1ncc(C(F)(F)F)c(CCc3ccccc3CC(N)=O)n1)OC[C@H]1CN(C(C)=O)CCN21` [Compound B7R], for which, in series [1], the AUC(0-t) at 24 h was found to be 1430 ng·h/mL, the highest level (Cmax) was 390 ng/mL, the time to peak (Tmax) is 2 h and the half-life is 1.2 h. The compound also came in with an IC50 at FAK kinase below 0.5 nM.

In the case of `COc1cc2c(cc1Nc1ncc(C(F)(F)F)c(CCc3ccccc3CC(N)=O)n1)OC[C@H]1CN(S(C)(=O)=O)CCN21` [Compound B8R], in series [1], the AUC(0-t) at 24 h is 133 ng·h/mL, the Cmax turned out to be 39.3 ng/mL, the time of peak concentration (Tmax) is 1.7 h and the half-life was 1.5 h. The half-maximal inhibitory concentration (IC50) at FAK kinase was below 0.5 nM.

In the case of `COc1cc2c(cc1Nc1ncc(C(F)(F)F)c(CCc3ccccc3CC(N)=O)n1)OC[C@H]1CN(C3CN(C)C3)CCN21` [Compound B9R], in series [1], the exposure AUC(0-t) at 24 h stood at 368 ng·h/mL, the Cmax stood at 61.8 ng/mL, the Tmax was 3.3 h and the half-life was 2.6 h. The IC50 on FAK kinase was below 0.5 nM.
